From patent EP3461349A1, “NOVEL DITERPENE GLYCOSIDES AS SWEETENERS OR SWEETENER ENHANCER” (Analyticon Discovery GmbH, priority 2017, dated 2019)
Where two headings read alike, the source gives them in different places.

What was measured:
panel of 4 panelists = experiment: Organoleptic test against sucrose and baiyunoside (taste panel); type: in vivo; set-up: key to compared to sucrose*: 3: sweeter than the control solution; 2: sweetness comparable with the control solution; 1: less sweet than the control solution but still sweet; conditions: for comment: cooling effect / comment: sweetness relative to Baiyunoside / comment: bitterness / off-taste / comment: lingering / persistence of sweet taste: 0.4 mg/ml (400 ppm) in non-carbonated mineral water; for comment: bitterness / off-taste / comment: lingering / persistence of sweet taste: compounds compared with Baiyunoside; for compared to sucrose*: sweetness score, 0.4 mg/ml (400 ppm) in non-carbonated mineral water vs sucrose 20 mg/ml, 4 panelists
Text: Organoleptic test of the compounds of formula (I) against sucrose and baiyunoside

[1] = literature; printed as "often >100x sweeter than sucrose"; cited from earlier work
[2] = Solubility in non-carbonated mineral water at the test concentration; conditions: 0.4 mg/ml (400 ppm) in non-carbonated mineral water
Method: The isolated pure compounds were dissolved in non-carbonated mineral water ("Fonsana Quelle") in a concentration of 0.4 mg/ml (400 ppm).

[3] = quoted from Tanaka et al.; cited from earlier work

| Molecule | comment: cooling effect (panel of 4 panelists) | comment: sweetness relative to Baiyunoside (panel of 4 panelists) | comment: bitterness / off-taste (panel of 4 panelists) | comment: lingering / persistence of sweet taste (panel of 4 panelists) | compared to sucrose* (panel of 4 panelists) | sweetness relative to sucrose [1] [x] | solubility [2] | sweetness compared with the sucrose solution (in words) (panel of 4 panelists; Baiyunoside solution at nominal 0.4 mg/ml, not completely dissolved, vs sucrose 20 mg/ml) | duration of sweetness [3] | sweetness relative to sucrose [3] |
| --- | --- | --- | --- | --- | --- | --- | --- | --- | --- | --- |
| CC1=C(CCc2ccoc2)C2(C)CCC(OC3OC(COS(=O)(=O)O)C(O)C(O)C3OC3OCC(O)C(O)C3O)C(C)(C)C2CC1 (centres unmarked) [Compound A, Baiyunoside-6'-sulfate] | Shows a remarkable cooling effect. | Sweeter | less bitter | less lingering | 3 |  |  |  |  |  |
| CC1=C(CCc2ccoc2)C2(C)CCC(OC3OC(CO)C(O)C(OS(=O)(=O)O)C3OC3OCC(O)C(O)C3O)C(C)(C)C2CC1 (centres unmarked) [Compound B, Baiyunoside-3'-sulfate] | Shows a remarkable cooling effect. | Sweeter | less bitter | less lingering | 3 |  |  |  |  |  |
| CC1=C(CCc2ccoc2)C2(C)CCC(OC3OC(COS(=O)(=O)O)C(O)C(O)C3O)C(C)(C)C2CC1 (centres unmarked) [Compound C, Baiyunol-3-glucosyl-6'-sulfate] | Shows a remarkable cooling effect. | Sweeter | less bitter | less lingering | 3 |  |  |  |  |  |
| C[C@H](CC[C@@H](O[C@@H]1O[C@H](CO[C@@H]2O[C@H](CO)[C@@H](O)[C@H](O)[C@H]2O)[C@@H](O)[C@H](O)[C@H]1O[C@@H]1O[C@H](CO)[C@@H](O)[C@H](O)[C@H]1O)C(C)(C)O)[C@H]1CC[C@@]2(C)[C@@H]3CC=C4[C@@H](CC[C@H](O[C@@H]5O[C@H](CO)[C@@H](O[C@@H]6O[C@H](CO)[C@@H](O)[C@H](O)[C@H]6O)[C@H](O)[C@H]5O)C4(C)C)[C@]3(C)[C@H](O)C[C@]12C [iso-mogroside V] |  |  |  |  |  | > 100 |  |  |  |  |
| C[C@H](CC[C@@H](O[C@@H]1O[C@H](CO[C@@H]2O[C@H](CO)[C@@H](O)[C@H](O)[C@H]2O)[C@@H](O)[C@H](O)[C@H]1O[C@@H]1O[C@H](CO)[C@@H](O)[C@H](O)[C@H]1O)C(C)(C)O)[C@H]1CC[C@@]2(C)[C@@H]3CC=C4[C@@H](CC[C@H](O[C@@H]5O[C@H](CO[C@@H]6O[C@H](CO)[C@@H](O)[C@H](O)[C@H]6O)[C@@H](O)[C@H](O)[C@H]5O)C4(C)C)[C@]3(C)[C@H](O)C[C@]12C [mogroside V] |  |  |  |  |  | > 100 |  |  |  |  |
| Baiyunol-3-(2'-arabinopyranosyl)-glucoside [Compound D] | Shows a remarkable cooling effect. | Sweeter | as bitter as Baiyunoside | less lingering | 3 |  | not completely soluble but better soluble than Baiyunoisde |  |  |  |
| Baiyunoside [reference compound] |  |  | bitter and licorice off-taste | very long lingering and persistent sweet taste |  |  | not completely soluble | comparable to the sweetness of the sucrose solution | more than one h | about 500 times |
